Source: paper PMC10587151, “Ligand activation mechanisms of human KCNQ2 channel” (Nature Communications, 2023)
Where a name gives a salt, the structure may show the parent alone. Read-outs that look alike come from different tables or passages of the source.

Key:
KCNQ2 [1] = target: T1, KCNQ2 (Homo sapiens, UniProt O43526, F104A); test: cryo-EM structure ([…] Å), closed state; assay type: binding
T1 construct: residues 64–674; with calmodulin (CaM)

KCNQ2 [2] = target: T2, KCNQ2 (Homo sapiens, UniProt O43526); test: cryo-EM structure ([…] Å); whole-cell patch clamp in CHO cells for the EC50; assay type: cell-based; design: wild-type human KCNQ2 cDNA in pcDNA5/FRT, expressed in CHO cells, whole-cell patch clamp; no CaM co-transfection stated; not the 64-674 cryo-EM construct
Target sequence in this assay (O43526 whole entry): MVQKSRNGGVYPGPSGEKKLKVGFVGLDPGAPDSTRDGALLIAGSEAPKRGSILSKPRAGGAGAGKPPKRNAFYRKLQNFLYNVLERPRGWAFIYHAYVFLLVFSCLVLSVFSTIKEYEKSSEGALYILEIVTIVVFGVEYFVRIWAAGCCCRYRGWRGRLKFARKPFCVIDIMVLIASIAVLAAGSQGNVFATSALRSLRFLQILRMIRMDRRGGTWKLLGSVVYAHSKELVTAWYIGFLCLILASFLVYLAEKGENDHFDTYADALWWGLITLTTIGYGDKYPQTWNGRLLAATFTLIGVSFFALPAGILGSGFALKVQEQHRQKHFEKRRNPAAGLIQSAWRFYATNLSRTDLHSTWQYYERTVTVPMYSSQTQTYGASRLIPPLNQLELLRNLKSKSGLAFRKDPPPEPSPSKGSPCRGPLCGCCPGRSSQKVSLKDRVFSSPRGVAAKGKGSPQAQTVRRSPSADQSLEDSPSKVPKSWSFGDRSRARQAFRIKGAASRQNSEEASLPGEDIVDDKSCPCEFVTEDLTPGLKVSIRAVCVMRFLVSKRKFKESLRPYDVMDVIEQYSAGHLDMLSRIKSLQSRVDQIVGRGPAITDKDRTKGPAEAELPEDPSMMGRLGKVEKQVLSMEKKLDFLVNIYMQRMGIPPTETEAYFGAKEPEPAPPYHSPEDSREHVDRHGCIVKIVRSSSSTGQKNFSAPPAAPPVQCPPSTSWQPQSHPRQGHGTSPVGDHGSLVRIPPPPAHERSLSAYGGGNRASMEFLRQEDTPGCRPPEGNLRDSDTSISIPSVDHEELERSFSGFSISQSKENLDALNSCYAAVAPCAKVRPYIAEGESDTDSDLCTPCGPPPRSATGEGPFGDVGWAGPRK

KCNQ2 [3] = target: T1, KCNQ2; test: cryo-EM structure ([…] Å), open state, with one CBD co-bound; assay type: binding
KCNQ2 [4] = target: T2, KCNQ2; test: cryo-EM structure ([…] Å), with CBD co-bound; design: residues 64–674; with calmodulin (CaM)
KCNQ2 [5] = target: T2, KCNQ2; test: cryo-EM structure ([…] Å); whole-cell patch clamp in CHO cells for the EC50; assay type: cell-based; design: residues 64–674; with calmodulin (CaM)
[6] = target: the molecule itself; test: cryo-EM structure; KCNQ2 (strep tag) and CaM (His tag) co-expressed in HEK293S, complex purified on Strep-Tactin and Superose 6 in 20 mM Tris pH 8.0, 150 mM KCl, 0.02% GDN; incubated with 0.25 mM CBD, 0.15 mM HN37 and/or 1 mM PIP2; C4 symmetry; closed and open states

T1 sequence (O43526 64-674 F104A): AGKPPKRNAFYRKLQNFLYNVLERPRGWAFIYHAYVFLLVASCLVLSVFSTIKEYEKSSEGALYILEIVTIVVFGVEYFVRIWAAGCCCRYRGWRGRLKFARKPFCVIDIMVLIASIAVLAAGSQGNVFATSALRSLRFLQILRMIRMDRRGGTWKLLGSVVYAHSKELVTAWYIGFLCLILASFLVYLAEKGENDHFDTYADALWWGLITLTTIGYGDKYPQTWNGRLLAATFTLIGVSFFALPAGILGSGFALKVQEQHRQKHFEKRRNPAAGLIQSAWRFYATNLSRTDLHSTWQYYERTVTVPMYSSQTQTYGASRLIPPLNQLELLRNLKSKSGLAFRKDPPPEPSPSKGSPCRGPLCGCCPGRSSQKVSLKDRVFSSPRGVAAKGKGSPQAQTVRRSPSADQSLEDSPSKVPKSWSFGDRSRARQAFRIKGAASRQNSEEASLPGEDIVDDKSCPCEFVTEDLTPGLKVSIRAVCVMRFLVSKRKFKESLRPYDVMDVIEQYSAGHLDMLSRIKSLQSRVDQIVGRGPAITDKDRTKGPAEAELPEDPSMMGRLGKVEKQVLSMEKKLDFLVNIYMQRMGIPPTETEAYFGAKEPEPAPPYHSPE

With `C=C(C)[C@@H]1CCC(C)=C[C@H]1c1c(O)cc(CCCCC)cc1O` [CBD, cannabidiol] the “cryo-EM structure (2.7 Å), closed state” value (KCNQ2 [1]) was “In both maps, CBDA molecules maintain strong densities but those for CBDB are barely observed” and the EC50 (KCNQ2 [2]) was 4500 ± 1790 nM.

With `CCCCCCCC(=O)OC[C@H](COP(=O)(O)O[C@@H]1[C@H](O)[C@H](O)[C@@H](OP(=O)(O)O)[C@H](OP(=O)(O)O)[C@H]1O)OC(=O)CCCCCCC` [PIP2, 1,2-dioctanoyl-sn-glycero-3-phospho-(1’-myo-inositol-4’,5’-bisphosphate) (ammonium salt)] the “cryo-EM structure (3.5 Å), open state, with one CBD co-bound” value (KCNQ2 [3]) was “KCNQ2-CaMF104A-CBD-PIP2-II is in an open state with the PIP2 bound” and the “cryo-EM structure (3.1 Å), with CBD co-bound” value (KCNQ2 [4]) was “between VSD and PD, one PIP2 molecule is assigned, with its fatty acid chains switched by S1III/S4III and S5II”.

Molecule `C#CCN(Cc1ccc(F)cc1)c1cc(C)c(NC(=O)OC)c(C)c1` [HN37] has an EC50 (KCNQ2 [5]) of 28.5 ± 2.99 nM.

B1: human KCNQ2 (residues 64-674, C-terminal strep tag) (domain or fragment, UniProt O43526-1 64-674, looked up)
chain: AGKPPKRNAFYRKLQNFLYNVLERPRGWAFIYHAYVFLLVFSCLVLSVFSTIKEYEKSSEGALYILEIVTIVVFGVEYFVRIWAAGCCCRYRGWRGRLKFARKPFCVIDIMVLIASIAVLAAGSQGNVFATSALRSLRFLQILRMIRMDRRGGTWKLLGSVVYAHSKELVTAWYIGFLCLILASFLVYLAEKGENDHFDTYADALWWGLITLTTIGYGDKYPQTWNGRLLAATFTLIGVSFFALPAGILGSGFALKVQEQHRQKHFEKRRNPAAGLIQSAWRFYATNLSRTDLHSTWQYYERTVTVPMYSSQTQTYGASRLIPPLNQLELLRNLKSKSGLAFRKDPPPEPSPSKGSPCRGPLCGCCPGRSSQKVSLKDRVFSSPRGVAAKGKGSPQAQTVRRSPSADQSLEDSPSKVPKSWSFGDRSRARQAFRIKGAASRQNSEEASLPGEDIVDDKSCPCEFVTEDLTPGLKVSIRAVCVMRFLVSKRKFKESLRPYDVMDVIEQYSAGHLDMLSRIKSLQSRVDQIVGRGPAITDKDRTKGPAEAELPEDPSMMGRLGKVEKQVLSMEKKLDFLVNIYMQRMGIPPTETEAYFGAKEPEPAPPYHSPE
notes: Human voltage-gated potassium channel KCNQ2, N- and C-terminal regions truncated, residues 64-674; numbers count on: NP_004509.2; The vector is a modified pEZT-BM; also called WT KCNQ2; KCNQ2 of the KCNQ2-CaM complex; source: HEK293S suspension cells, BacMam baculovirus, co-expressed with CaM, purified (Strep-Tactin, Superose 6); not shown: strep tag, C-terminal, kept
In the case of B1, the “stoichiometry N” value [6] is reported as 4.
